The values that follow come from patent US20250042887A1, “GLYCOGEN SYNTHASE KINASE-3 (GSK3) INHIBITOR COMPOUNDS FOR USE AS ANTIVIRAL AGENTS” (priority 2021, published 2025).

Entries after “also recorded” stand apart in the source; their conditions may differ.

This experiment concerns SARS-CoV-2 B.1.617.2 and BA.1 variants. It counts as cell-based. The conditions noted are these: B.1.617.2 (Delta) and BA.1 (Omicron).

Turning to `CSc1ccc(-n2cnc3ccc(-c4nnc(CCc5cccc(C#N)c5)o4)cc32)cc1` [Compound P-0717632], the “effect on SARS-CoV-2 variants” value is “reduced intracellular viral titres; also recorded: inhibited”.
